# From patent US20080119515A1, “Heterocyclic Kinase Inhibitors: Methods of Use and Synthesis” (priority 2003, published 2008)
# Biological target: T1, ZAP-70 (Homo sapiens, UniProt P43403)
# T1 sequence (P43403 1-619): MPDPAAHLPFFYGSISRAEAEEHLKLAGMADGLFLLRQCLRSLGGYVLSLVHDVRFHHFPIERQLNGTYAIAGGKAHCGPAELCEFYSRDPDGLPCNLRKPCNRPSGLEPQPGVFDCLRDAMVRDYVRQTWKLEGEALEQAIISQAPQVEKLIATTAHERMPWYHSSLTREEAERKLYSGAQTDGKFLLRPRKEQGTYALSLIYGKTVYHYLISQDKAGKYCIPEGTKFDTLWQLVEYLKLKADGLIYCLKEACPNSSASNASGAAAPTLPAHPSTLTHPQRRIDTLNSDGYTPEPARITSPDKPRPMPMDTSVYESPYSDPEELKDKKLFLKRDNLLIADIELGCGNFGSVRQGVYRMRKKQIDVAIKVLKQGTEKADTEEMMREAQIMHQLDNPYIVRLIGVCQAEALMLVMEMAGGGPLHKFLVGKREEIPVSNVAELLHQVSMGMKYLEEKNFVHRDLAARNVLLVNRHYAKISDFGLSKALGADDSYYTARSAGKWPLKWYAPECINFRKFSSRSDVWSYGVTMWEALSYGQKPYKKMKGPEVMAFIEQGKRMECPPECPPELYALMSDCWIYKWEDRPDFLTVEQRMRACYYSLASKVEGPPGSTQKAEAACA
# Experiment: DELFIA assay (ZAP-70 kinase, phosphorylation of biotinylated poly(glu,tyr))
# Type: biochemical
# Conditions: ZAP-70 DELFIA, class symbols; read-out: Activity (IC50 in vitro)
# In short: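 3.1 nM ZAP-70 pre-incubated 10 min at room temperature with compound ([…]) and 62.5 nM biotinylated poly(glu,tyr) in 62.5 mM Mops pH 7.0, 12.5 mM MgCl2, 12.5% glycerol, 6.25% DMSO (pre-incubation concentrations); ATP added from 5 mM stock, 30 min reaction, EDTA stop. Phosphorylation read by DELFIA europium anti-phosphotyrosine fluorescence (340/615).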
row,Structure (SMILES),IC50 [µM]
1,CN(C)c1ccc(Nc2cc(CCc3ccc(F)cc3)nc3ccc(-c4ccc5c(c4)OCO5)cc23)cc1 [Compound 415],> 10
2,N#Cc1ccc(-c2ccc3nc(N4CCCC4Cc4ccccc4)cc(C(=O)N4CCC[C@H]4CN4CCCC4)c3c2)cc1 (stereo partly shown) [Compound 253],> 10
3,N#Cc1ccc(-c2ccc3nc(NCc4ccc(F)cc4C(F)(F)F)cc(C(=O)N4CCC[C@H]4CN4CCCC4)c3c2)cc1 [Compound 239],> 10
4,N#Cc1ccc(-c2ccc3nc(NCCc4ccccc4F)cc(C(=O)N4CCC[C@H]4CN4CCCC4)c3c2)cc1 [Compound 191],> 10
5,N#Cc1ccc(-c2ccc3nc(NCCc4ccccc4Cl)cc(C(=O)N4CCC[C@H]4CN4CCCC4)c3c2)cc1 [Compound 156],> 10
6,N#Cc1ccc(-c2ccc3nc(NCc4ccc(C(F)(F)F)cc4F)cc(C(=O)N4CCC[C@H]4CN4CCCC4)c3c2)cc1 [Compound 240],> 10
7,COc1ccc([C@@H](C)Nc2cc(C(=O)N3CCC[C@H]3CN3CCCC3)c3cc(-c4ccc(C#N)cc4)ccc3n2)cc1 [Compound 202],> 10
8,N#Cc1ccc(-c2ccc3nc(NCc4ccc(Cl)cc4)cc(C(=O)N4CCC[C@H]4CN4CCCC4)c3c2)cc1 [Compound 168],> 10
9,CC(C)N(C)C[C@@H]1CCCN1C(=O)c1cc(NCc2ccccc2)nc2ccc(-c3ccc4c(c3)OCO4)cc12 [Compound 84],> 10
10,N#Cc1ccc(-c2ccc3nc(N4CCCC(c5ccccc5)C4)cc(C(=O)N4CCC[C@H]4CN4CCCC4)c3c2)cc1 (stereo partly shown) [Compound 265],> 10
11,N#Cc1ccc(-c2ccc3nc(NCc4cccc(Br)c4)cc(C(=O)N4CCC[C@H]4CN4CCCC4)c3c2)cc1 [Compound 165],> 10
12,O=C(c1cc(NCc2ccc(C(F)(F)F)cc2)nc2ccc(-c3cccc([C@H]4CCNC[C@@H]4O)c3)cc12)N1CCC[C@H]1CN1CCCC1 [Compound 425],> 10
13,N#Cc1ccc(-c2ccc3nc(NCc4ccc(F)cc4F)cc(C(=O)N4CCC[C@H]4CN4CCCC4)c3c2)cc1 [Compound 198],> 10
14,N#Cc1ccc(-c2ccc3nc(NCCc4ccc(Cl)cc4)cc(C(=O)N4CCC[C@H]4CN4CCCC4)c3c2)cc1 [Compound 174],> 10
15,O=C(Nc1ccc2[nH]ncc2c1)c1cc(NCc2ccc(C(F)(F)F)cc2)nc2ccc(-c3ccc4c(c3)OCO4)cc12 [Compound 88],> 10
16,CN(CCc1ccccc1)c1cc(C(=O)N2CCC[C@H]2CN2CCCC2)cc(N(C)c2ccccc2)n1 [Compound 371],> 10
17,O=C(c1cc(/C=C/c2ccc(C(F)(F)F)cc2)nc2ccc(-c3ccc4c(c3)OCO4)cc12)N1CCC[C@H]1CN1CCCC1 [Compound 133],1 to 10
18,O=C(c1cc(Cl)ncc1Cl)N1CCC[C@H]1CN1CCCC1 [Compound 112],> 10
19,O=C(c1cc(NCc2ccc(C(F)(F)F)cc2)nc2ccc(I)cc12)N1CCC[C@H]1CN1CCCC1 [Compound 356],> 10
20,O=C(c1cc(NCc2ccc(Cl)cc2)nc2ccc(-c3ccc4c(c3)OCO4)cc12)N1CC2CC2[C@H]1CN1CCCC1 (stereo partly shown) [Compound 146],1 to 10
21,N#Cc1ccc(-c2ccc3nc(NCc4cccc(Cl)c4F)cc(C(=O)N4CCC[C@H]4CN4CCCC4)c3c2)cc1 [Compound 229],> 10

# Now from value to compound:
row,IC50 [µM],Structure (SMILES)
1,< 1,O=C(c1cc(NCCc2ccc(Cl)cc2Cl)nc2ccc(-c3ccc4c(c3)OCO4)cc12)N1CCC[C@H]1CN1CCCC1 [Compound 45]
2,1 to 10,O=C(c1cc(NCc2ccc(C(F)(F)F)cc2)nc2ccc(-c3ccc4c(c3)OCO4)cc12)N1CCCC1CCN1CCCC1 (stereo not shown) [Compound 109]
3,< 1,O=C(c1cc(NCc2ccc(F)cc2)nc2ccc(-c3ccc4c(c3)OCO4)cc12)N1CCC[C@H]1CN1CCCC1 [Compound 30]
4,1 to 10,N#Cc1ccc(-c2ccc3nc(N[C@H](CO)Cc4ccccc4)cc(C(=O)N4CCC[C@H]4CN4CCCC4)c3c2)cc1 [Compound 316]
5,1 to 10,FC(F)(F)c1ccc(CNc2cc(C(=S)N3CCC[C@H]3CN3CCCC3)c3cc(-c4ccc5c(c4)OCO5)ccc3n2)cc1 [Compound 373]
6,1 to 10,O=C(c1cc(NCc2ccccc2)nc2ccc(-c3ccc4c(c3)OCO4)cc12)N1CCC[C@H]1CN1CCCCC1 [Compound 82]
7,< 1,O=C(c1cc(CCc2ccccc2F)nc2ccc(-c3ccc4c(c3)OCO4)cc12)N1CCC[C@H]1CN1CCCC1 [Compound 395]
8,1 to 10,O=C(c1cc(NCc2ccc(C(F)(F)F)cc2)nc2cc(-c3ccc(Cl)c(Cl)c3)ccc12)N1CCC[C@H]1CN1CCCC1 [Compound 122]
9,1 to 10,Fc1ccc(/C=C/c2cc(Nc3ccc(N4CCNCC4)cc3)c3cc(-c4ccc5c(c4)OCO5)ccc3n2)cc1 [Compound 413]
10,1 to 10,O=C(c1cc(N[C@@H]2c3ccccc3C[C@@H]2O)nc2ccc(-c3ccc4c(c3)OCO4)cc12)N1CCC[C@H]1CN1CCCC1 [Compound 48]
11,1 to 10,C[C@H]1CCN(C(=O)c2cc(NCc3ccc(Cl)cc3)nc3ccc(-c4ccc5c(c4)OCO5)cc23)[C@@H]1CN1CCCC1 [Compound 148]
12,< 1,O=C(c1cc(NCc2ccc(C(F)(F)F)cc2)nc2c(Cl)cc(-c3ccc4c(c3)OCO4)cc12)N1CCC[C@H]1CN1CCCC1 [Compound 384]
13,< 1,O=C(c1cc(NCc2ccc(C(F)(F)F)cc2)nc2ccc(-c3ccc4c(c3)OCO4)cc12)N1CC=C[C@H]1CN1CCCC1 [Compound 411]
14,1 to 10,COC[C@H]1CCCN1c1cc(C(=O)N2CCC[C@H]2CN2CCCC2)c2cc(-c3ccc4c(c3)OCO4)ccc2n1 [Compound 328]
15,1 to 10,O=C(c1cc(NCc2ccc(C(F)(F)F)cc2)nc2ccc(-c3ccc4c(c3)OCO4)cc12)N1CCC[C@H]1CNC1CCCCC1 [Compound 360]
16,1 to 10,O=C(c1cc(CCc2ccc(F)cc2)nc2ccc(-c3ccc4c(c3)OCO4)cc12)N1CCC[C@H]1CN1CCCC1 [Compound 135]
17,1 to 10,CN1CCN(c2cc(C(=O)N3CCC[C@H]3CN3CCCC3)c3cc(-c4ccc5c(c4)OCO5)ccc3n2)CC1 [Compound 61]
18,1 to 10,CN(Cc1ccccc1)c1cc(C(=O)N2CCC[C@H]2CN2CCCC2)cc(N(C)c2ccccc2)n1 [Compound 363]
19,< 1,O=C(c1cc(NCc2ccc(C(F)(F)F)cc2)nc2ccc(-c3cccc(OC(F)(F)F)c3)cc12)N1CCC[C@H]1CN1CCCC1 [Compound 310]
20,< 1,CN(C)CCN1CCN(c2ccc(Cc3cc(C(=O)N4CCCC4CN4CCCC4)c4cc(-c5ccc6c(c5)OCO6)ccc4n3)cc2)CC1 (stereo not shown) [Compound 442]
21,< 1,O=C(c1cc(NCC2CCCCC2)nc2ccc(-c3ccc4c(c3)OCO4)cc12)N1CCC[C@H]1CN1CCCC1 [Compound 27]
22,< 1,CCCCCc1ccc(CCc2cc(C(=O)N3CCC[C@H]3CN3CCCC3)c3cc(-c4ccc5c(c4)OCO5)ccc3n2)cc1 [Compound 398]
23,< 1,C[C@H](Nc1cc(C(=O)N2CCC[C@H]2CN2CCCC2)c2cc(-c3ccc4c(c3)OCO4)ccc2n1)c1ccc(Cl)cc1 [Compound 331]
24,< 1,O=C(c1cc(NCc2ccc(C(F)(F)F)cc2)nc2ccc(-c3ccc4c(c3)OCO4)cc12)N1CCC[C@H]1CNC1CCCC1 [Compound 358]
25,< 1,O=C(c1cc(CCc2cccc(C(F)(F)F)c2)nc2ccc(-c3ccc4c(c3)OCO4)cc12)N1CCC[C@H]1CN1CCCC1 [Compound 410]
